Measured values reported in article PMC8733726, “Dioctanoyl Ultrashort Tetrabasic β-Peptides Sensitize Multidrug-Resistant Gram-Negative Bacteria to Novobiocin and Rifampicin” (Frontiers in Microbiology, 2021).
≈ marks a conversion by molar mass, not a printed value. Like-named read-outs stand apart in the source and are kept apart here.

Assays:
[1] = tested on: wild-type E. coli ATCC 25922; assay: microbe, parasite or virus in culture; assay type: cell-based, Escherichia coli; conditions: for MICcombo: antibiotic with dUSTBβP 3 at 8 μg/mL; for MIC: Escherichia coli, ATCC25922, 18 h, read-out: MICantibiotic
Experimental: (§1) The adjuvant activities of dUSTBβPs were evaluated using checkerboard assay as previously described ([Berry et al., 2019]). Overnight-grown bacterial culture diluted in saline to 0.5 McFarland turbidity was successively diluted 1:50 in MHB to achieve a final concentration of 5 × 10^5 CFU/mL for inoculation. The antibiotic and adjuvant were serially diluted 2-fold along the x-axis and y-axis, respectively, resulting in varying concentrations of both agents in each well. Subsequently, the 96-well plate was incubated with equal volumes of bacterial inoculum at 37°C for 18 h. Confirmation of turbidity was done using an EMax Plus microplate reader (Molecular Devices, United States) at a wavelength of 590 nm. Wells comprising MHB alone or in the presence of bacterial cells were used as negative or positive controls, respectively. Fractional inhibitory concentration index (FICI) is determined by adding the FICs of both antibiotic and adjuvant. The FIC of the antibiotic is calculated by dividing the MIC of the antibiotic in the presence of the adjuvant by the MIC of the antibiotic alone. Similarly, the FIC of the adjuvant is calculated by dividing the MIC of the adjuvant in the presence of the antibiotic by the MIC of the adjuvant alone. FICI ≤ 0.5, 0.5 < x ≤ 4, and >4 were deemed synergistic, additive, and antagonistic, respectively ([Meletiadis et al., 2010]).

[2] = tested on: MDR A. baumannii clinical isolates; assay: Resistance phenotype (MICs of antibiotics) of MDR clinical isolates; assay type: cell-based, Acinetobacter baumannii; conditions: Acinetobacter baumannii
[3] = tested on: MDR P. aeruginosa clinical isolates; assay: as above; assay type: cell-based, Pseudomonas aeruginosa; conditions: Pseudomonas aeruginosa, read-out: MIC
[4] = tested on: MDR E. cloacae clinical isolates; assay: as above; assay type: cell-based, Enterobacter cloacae; conditions: Enterobacter cloacae, read-out: MIC
[5] = tested on: MDR K. pneumoniae clinical isolates; assay: as above; assay type: cell-based, Klebsiella pneumoniae; conditions: Klebsiella pneumoniae
[6] = tested on: wild-type A. baumannii ATCC 17978; assay: Checkerboard assay; assay type: cell-based, Acinetobacter baumannii; conditions: for MICcombo: antibiotic with dUSTBβP 3 at 8 μg/mL; for MIC: Acinetobacter baumannii, ATCC17978, 18 h, read-out: MICantibiotic
Source text: as §1, with “Overnight-grown” for “The adjuvant activities of dUSTBβPs were evaluated using checkerboard assay as previously described ([Berry et al., 2019]). Overnight-grown”, “Subsequently, the 96-well plate was incubated with equal volumes of bacterial inoculum at 37°C for 18 h.” left out, “alone.” for “alone. FICI ≤ 0.5, 0.5 < x ≤ 4, and >4 were deemed synergistic, additive, and antagonistic, respectively ([Meletiadis et al., 2010]).”

[7] = tested on: MDR E. coli clinical isolates; assay: Resistance phenotype (MICs of antibiotics) of MDR clinical isolates; assay type: cell-based, Escherichia coli; conditions: Escherichia coli, read-out: MIC
[8] = tested on: wild-type P. aeruginosa PAO1; assay: microbe, parasite or virus in culture; assay type: cell-based, Pseudomonas aeruginosa; conditions: for MICcombo: antibiotic with dUSTBβP 3 at 8 μg/mL; for MIC: Pseudomonas aeruginosa, read-out: MICantibiotic
Source text: as §1, with “Overnight-grown” for “The adjuvant activities of dUSTBβPs were evaluated using checkerboard assay as previously described ([Berry et al., 2019]). Overnight-grown”, “Subsequently, the 96-well plate was incubated with equal volumes of bacterial inoculum at 37°C for 18 h.” left out, “alone.” for “alone. FICI ≤ 0.5, 0.5 < x ≤ 4, and >4 were deemed synergistic, additive, and antagonistic, respectively ([Meletiadis et al., 2010]).”

[9] = ATCC 25922, antibiotic alone (Supplementary Table 7)
[10] = ATCC 17978, antibiotic alone (Supplementary Table 7)
[11] = 18 h, PAO1, antibiotic alone (Supplementary Table 7)

| Structure (SMILES) | MICcombo ([1]; ATCC 25922) | MIC [1, 9] | MIC ([2]; 110193, read-out: MIC) | MIC ([2]; AB027, read-out: MIC) | MIC ([2]; AB031, read-out: MIC) | MIC ([2]; LAC-4, read-out: MIC) | MIC ([3]; 259-96196) | MIC ([3]; 262-101856) | MIC ([3]; 264-104354) | MIC [4]; 117029 | MIC ([5]; 113250, read-out: MIC) | MIC ([5]; 113254, read-out: MIC) | MIC ([5]; 116381, read-out: MIC) | MICcombo ([6]; ATCC 17978) | MIC [6, 10] | MIC ([7]; 94393 (mcr-1 +)) | MIC ([7]; 94474 (mcr-1 +)) | MIC [7]; 107115 | MICcombo ([8]; PAO1) | MIC [8, 11] | also measured |
| --- | --- | --- | --- | --- | --- | --- | --- | --- | --- | --- | --- | --- | --- | --- | --- | --- | --- | --- | --- | --- | --- |
| CN(C)c1ccc(O)c2c1C[C@H]1C[C@H]3[C@H](N(C)C)C(O)=C(C(N)=O)C(=O)[C@@]3(O)C(O)=C1C2=O [Minocycline] | 0.063 µg/mL | 0.5 µg/mL | 1 µg/mL (≈ 2.19 µM) | 0.25 µg/mL (≈ 0.546 µM) | 0.25 µg/mL (≈ 0.546 µM) | 4 µg/mL (≈ 8.74 µM) | 32 µg/mL (≈ 69.9 µM) | 64 µg/mL (≈ 140 µM) | 32 µg/mL (≈ 69.9 µM) | 32 µg/mL (≈ 69.9 µM) | 2 µg/mL (≈ 4.37 µM) | 2 µg/mL (≈ 4.37 µM) | 64 µg/mL (≈ 140 µM) | 0.25 µg/mL | 0.5 µg/mL | 2 µg/mL (≈ 4.37 µM) | 64 µg/mL (≈ 140 µM) | 32 µg/mL (≈ 69.9 µM) | 1 µg/mL | 16 µg/mL (≈ 35 µM) | MIC [2]: 0.125 µg/mL (≈ 0.273 µM); MIC [3]; 91433: 16 µg/mL (≈ 35 µM); MIC [3]; 114228: 32 µg/mL (≈ 69.9 µM) |
| COc1c(N2C[C@@H]3CCCN[C@@H]3C2)c(F)cc2c(=O)c(C(=O)O)cn(C3CC3)c12 [Moxifloxacin] | 0.001 µg/mL | 0.016 µg/mL | ≤ 1 µg/mL | 8 µg/mL (≈ 19.9 µM) | 0.12 µg/mL (≈ 0.299 µM) | – | > 16 µg/mL | > 16 µg/mL | > 16 µg/mL | ≤ 0.06 µg/mL | ≤ 0.06 µg/mL | ≤ 0.06 µg/mL | > 16 µg/mL | > 0.125 µg/mL | > 0.125 µg/mL | 1 µg/mL (≈ 2.49 µM) | 16 µg/mL (≈ 39.9 µM) | 16 µg/mL (≈ 39.9 µM) | 0.5 µg/mL | 2 µg/mL (≈ 4.98 µM) | MIC [3]; 91433: 16 µg/mL (≈ 39.9 µM); MIC [4]; 118564: 0.12 µg/mL (≈ 0.299 µM); MIC [4]; 121187: 1 µg/mL (≈ 2.49 µM) |
| CN[C@H](CC(C)C)C(=O)N[C@H]1C(=O)N[C@@H](CC(N)=O)C(=O)N[C@H]2C(=O)N[C@H]3C(=O)N[C@H](C(=O)N[C@H](C(=O)O)c4cc(O)cc(O)c4-c4cc3ccc4O)[C@H](O)c3ccc(c(Cl)c3)Oc3cc2cc(c3O[C@@H]2O[C@H](CO)[C@@H](O)[C@H](O)[C@H]2O[C@H]2C[C@](C)(N)[C@H](O)[C@H](C)O2)Oc2ccc(cc2Cl)[C@H]1O [Vancomycin] | 64 µg/mL | – | – | – | – | – | – | – | – | – | – | – | – | 32 µg/mL | – | – | – | – | 256 µg/mL | – | MIC [1]: 128 µg/mL; MIC [6]: > 128 µg/mL; MIC ([8]; PAO1, 18 h): 256 µg/mL (≈ 177 µM) |
| C[C@H]1COc2c(N3CCN(C)CC3)c(F)cc3c(=O)c(C(=O)O)cn1c23 [Levofloxacin] | 0.002 µg/mL | 0.008 µg/mL | ≤ 1 µg/mL | 8 µg/mL (≈ 22.1 µM) | 0.25 µg/mL (≈ 0.692 µM) | 2 µg/mL (≈ 5.53 µM) | 256 µg/mL (≈ 708 µM) | 64 µg/mL (≈ 177 µM) | 64 µg/mL (≈ 177 µM) | – | – | – | – | 0.25 µg/mL | 0.25 µg/mL | 1 µg/mL (≈ 2.77 µM) | 32 µg/mL (≈ 88.6 µM) | 32 µg/mL (≈ 88.6 µM) | 0.25 µg/mL | 0.5 µg/mL (≈ 1.38 µM) | MIC [5]; 113250: 0.125 µg/mL (≈ 0.346 µM); MIC [5]; 113254: 0.0625 µg/mL (≈ 0.173 µM); MIC [5]; 116381: 128 µg/mL (≈ 354 µM) |
| C=C[C@]1(C)C[C@@H](OC(=O)CO)[C@]2(C)[C@H](C)CC[C@]3(CCC(=O)[C@H]32)[C@@H](C)[C@@H]1O [Pleuromutilin] | 0.5 µg/mL | 64 µg/mL | – | – | – | – | – | – | – | – | – | – | – | 4 µg/mL | 256 µg/mL | – | – | – | 256 µg/mL | 1020 µg/mL (≈ 2710 µM) | – |
| C[C@H]1[C@H](NC(=O)/C(=N\OC(C)(C)C(=O)O)c2csc(N)n2)C(=O)N1S(=O)(=O)O [Aztreonam] | 0.063 µg/mL | 0.25 µg/mL | – | – | – | – | 32 µg/mL (≈ 73.5 µM) | 32 µg/mL (≈ 73.5 µM) | 64 µg/mL (≈ 147 µM) | ≤ 0.12 µg/mL | ≤ 0.12 µg/mL | ≤ 0.12 µg/mL | 16 µg/mL (≈ 36.7 µM) | 32 µg/mL | 64 µg/mL | ≤ 0.12 µg/mL | ≤ 0.12 µg/mL | > 64 µg/mL | 4 µg/mL | 4 µg/mL (≈ 9.19 µM) | MIC [3]; 114228: 32 µg/mL (≈ 73.5 µM); MIC [4]; 118564: ≤ 0.12 µg/mL; MIC [4]; 121187: ≤ 0.12 µg/mL |
